Data as given in ChEMBL document CHEMBL3132786, “Cytotoxic, immunomodulatory, antimycotic, and antiviral activities of semisynthetic 14-hydroxyabietane derivatives and triptoquinone C-4 epimers” (Medchemcomm, 2013).
Active and inactive are the calls of the source. The calls are words filed in the database; no cut-off is given here.

How the values were obtained:
[1] = system: Vero; test: Cytotoxicity against african green monkey Vero cells after 48 hrs by MTT assay; assay type: cell-based; details: chlorocebus sabaeus
[2] = Selectivity ratio of IC50 for african green monkey Vero cells to IC50 for human Jurkat cells; assay type: ADME, cell-based; details: Vero cells versus Jurkat cells, read-out: Ratio IC50
[3] = system: Monocyte; test: Reduction in IL-10 production in human monocytes at 5 to 15 ug/ml after 24 hrs by cytometric bead array method; assay type: functional, cell-based
[4] = Antiproliferative activity against PHA-stimulated human CD8+ T cells at 7 to 14 ug/ml after 72 hrs by CFSE fluorescence staining-based flow cytometry; details: t-cell
[5] = system: Jurkat; test: Induction of apoptosis in human Jurkat cells assessed as apoptotic cells at 14 ug/ml after 15 hrs by annexin V/PI-based flow cytometry; assay type: functional
[6] = system: Aspergillus fumigatus; test: Antifungal activity against Aspergillus fumigatus up to 100 ug/ml after 48 hrs by broth dilution method; assay type: functional, organism-based
[7] = system: Jurkat; test: Cell cycle arrest in human Jurkat cells assessed as hypoploidy at 14 ug/ml after 24 hrs by flow cytometry; assay type: functional
[8] = system: PBMC; test: Antiproliferative activity against PHA-stimulated human PBMCs assessed as CD69 expression at 1 to 14 ug/ml treated post PHA stimulation measured after 12 hrs by flow cytometry; assay type: cell-based
[9] = system: PBMC; test: Reduction in membrane potential in human PBMCs at 14 ug/ml after 24 hrs using DiOC6(3) by flow cytometry; assay type: ADME, cell-based; design: scale not given: the % may be the effect or the level left
[10] = system: PBMC; test: Induction of apoptosis in human PBMCs assessed as apoptotic cells at 14 ug/ml after 24 hrs by annexin V/PI-based flow cytometry; assay type: cell-based
[11] = system: Monocyte; test: Inhibition of differentiation of LPS-stimulated human monocytes assessed as reduction in expression of HLA-DR at 5 to 15 ug/ml after 120 hrs by fluorescence assay; assay type: functional, cell-based
[12] = system: Monocyte; test: Reduction in IL-1beta production in human monocytes at 5 to 15 ug/ml after 24 hrs by cytometric bead array method; assay type: functional, cell-based
[13] = system: Jurkat; test: Cytotoxicity against human Jurkat cells after 48 hrs by MTT assay; assay type: functional, cell-based
[14] = system: Jurkat; test: Reduction in membrane potential in human Jurkat cells at 7 ug/ml after 15 to 24 hrs using DiOC6(3) by flow cytometry; assay type: functional, cell-based
[15] = system: PBMC; test: Induction of apoptosis in human PBMCs assessed as apoptotic cells at 14 ug/ml after 15 hrs by annexin V/PI-based flow cytometry; assay type: cell-based
[16] = system: Jurkat; test: Induction of apoptosis in human Jurkat cells assessed as apoptotic cells at 14 ug/ml after 24 hrs by annexin V/PI-based flow cytometry; assay type: functional
[17] = system: Aspergillus niger; test: Antifungal activity against Aspergillus niger up to 100 ug/ml after 48 hrs by broth dilution method; assay type: functional, organism-based
[18] = system: Jurkat; test: Reduction in membrane potential in human Jurkat cells at 14 ug/ml after 24 hrs using DiOC6(3) by flow cytometry; assay type: functional; design: scale not given: the % may be the effect or the level left
[19] = system: PBMC; test: Effect on cell cycle distribution in human PBMCs assessed as hypoploidy at 14 ug/ml after 15 to 24 hrs by flow cytometry; assay type: ADME, cell-based
[20] = system: HeLa; test: Cytotoxicity against human HeLa cells after 48 hrs by MTT assay; assay type: functional, cell-based
[21] = system: PBMC; test: Antiproliferative activity against human PBMCs at 14 ug/ml after 48 hrs by CFSE fluorescence staining-based flow cytometry; assay type: cell-based
[22] = Antiproliferative activity against PHA-stimulated human CD8+ T cells at 14 ug/ml after 72 hrs by CFSE fluorescence staining-based flow cytometry; details: t-cell
[23] = system: Jurkat; test: Induction of apoptosis in human Jurkat cells assessed as DNA damage at 14 ug/ml after 24 hrs by TUNEL assay; assay type: functional
[24] = system: Jurkat; test: Induction of apoptosis in human Jurkat cells assessed as DNA damage at 14 ug/ml after 15 hrs by TUNEL assay; assay type: functional
[25] = Antiproliferative activity against PHA-stimulated human CD4+ T cells at 14 ug/ml after 72 hrs by CFSE fluorescence staining-based flow cytometry; details: t-cell
[26] = system: PBMC; test: Effect on membrane integrity in human PBMCs; assay type: ADME, cell-based
[27] = system: Jurkat; test: Effect on membrane integrity in human Jurkat cells; assay type: functional, cell-based
[28] = system: PBMC; test: Antiproliferative activity against PHA-stimulated human PBMCs assessed as CD69 expression pretreated at 1 to 14 ug/ml before PHA stimulation measured after 12 hrs by flow cytometry; assay type: cell-based
[29] = system: PBMC; test: Reduction in membrane potential in human PBMCs at 14 ug/ml after 15 hrs using DiOC6(3) by flow cytometry; assay type: ADME, cell-based; design: scale not given: the % may be the effect or the level left
[30] = system: Aspergillus terreus; test: Antifungal activity against Aspergillus terreus up to 100 ug/ml after 48 hrs by broth dilution method; assay type: functional, organism-based
[31] = Selectivity ratio of IC50 for african green monkey Vero cells to IC50 for human HeLa cells; assay type: ADME, cell-based; details: Vero cells versus HeLa cells, read-out: Ratio IC50
[32] = system: Monocyte; test: Reduction in LPS-induced IL-10 production in human monocytes at 5 to 15 ug/ml pretreated before LPS addition after 24 hrs by cytometric bead array method; assay type: functional, cell-based
[33] = Antiproliferative activity against PHA-stimulated human CD4+ T cells at 7 to 14 ug/ml after 72 hrs by CFSE fluorescence staining-based flow cytometry; details: t-cell
[34] = system: Jurkat; test: Reduction in membrane potential in human Jurkat cells at 14 ug/ml after 15 hrs using DiOC6(3) by flow cytometry; assay type: functional; design: scale not given: the % may be the effect or the level left
[35] = system: Aspergillus flavus; test: Antifungal activity against Aspergillus flavus up to 100 ug/ml after 48 hrs by broth dilution method; assay type: functional, organism-based
[36] = system: PBMC; test: Antiproliferative activity against human PBMCs at 7 ug/ml after 48 hrs by CFSE fluorescence staining-based flow cytometry; assay type: cell-based
[37] = system: Monocyte; test: Reduction in TNF-alpha production in human monocytes at 5 to 15 ug/ml after 24 hrs by cytometric bead array method; assay type: functional, cell-based
[38] = system: Jurkat; test: Cell cycle arrest in human Jurkat cells assessed as hypoploidy at 14 ug/ml after 15 hrs by flow cytometry; assay type: functional
[39] = system: PBMC; test: Effect on cell cycle distribution in human PBMCs at 14 ug/ml after 15 to 24 hrs by flow cytometry; assay type: ADME, cell-based
[40] = system: Jurkat; test: Cell cycle arrest in human Jurkat cells assessed as decrease in G0/G1 phase at 14 ug/ml after 15 to 24 hrs by flow cytometry; assay type: functional, cell-based
[41] = system: Jurkat; test: Cell cycle arrest in human Jurkat cells assessed as accumulation at G2/M phase at 14 ug/ml after 24 hrs by flow cytometry; assay type: functional
[42] = system: Jurkat; test: Cell cycle arrest in human Jurkat cells assessed as accumulation at G2/M phase at 14 ug/ml after 15 hrs by flow cytometry; assay type: functional
[43] = system: Monocyte; test: Reduction in LPS-induced IL-1beta production in human monocytes at 5 to 15 ug/ml pretreated before LPS addition after 24 hrs by cytometric bead array method; assay type: functional, cell-based
[44] = system: Monocyte; test: Reduction in LPS-induced TNF-alpha production in human monocytes at 5 to 15 ug/ml pretreated before LPS addition after 24 hrs by cytometric bead array method; assay type: functional, cell-based
[45] = system: Human alphaherpesvirus 1; test: Antiviral activity against Herpes simplex virus type 1 infected in HeLa cells assessed as reduction in viral replication after 48 hrs; assay type: functional, organism-based
[46] = system: PBMC; test: Reduction in membrane potential in human PBMCs at 7 to 14 ug/ml after 15 to 24 hrs using DiOC6(3) by flow cytometry; assay type: ADME, cell-based
[47] = system: PBMC; test: Antiproliferative activity against human PBMCs at 7 to 14 ug/ml after 48 hrs by CFSE fluorescence staining-based flow cytometry; assay type: cell-based

CC(C)C1=CC(=O)C2=C(CC[C@H]3[C@](C)(CO)CCC[C@]23C)C1=O
inhibition (INH) [1]: Dose-dependent effect | selectivity ratio [2]: 5.46 | Activity [3]: inactive | Activity [4]: Non-toxic | Activity [5]: 26% | Activity [6]: inactive | Activity [7]: 35% | Activity [8]: Non-toxic | Activity [9]: 90% | Activity [10]: 90% | Activity [11]: Active | Activity [12]: inactive | inhibition [13]: Dose-dependent effect | Activity [14]: inactive | Activity [15]: 75% | Activity [16]: 86% | Activity [17]: inactive | Activity [18]: 25% | Activity [19]: Non-toxic | inhibition [20]: Dose-dependent effect | Activity [21]: 82% | Activity [22]: 77% | Activity [23]: 35% | Activity [24]: 10% | Activity [25]: 88% | Activity [26]: Non-toxic | Activity [27]: inactive | Activity [28]: Non-toxic | Activity [29]: 20% | Activity [30]: inactive | selectivity ratio [31]: 1 | Activity [32]: Active | Activity [33]: Non-toxic | Activity [34]: 15% | Activity [35]: inactive | Activity [36]: 77% | Activity [37]: inactive | Activity [38]: 12% | Activity [39]: Non-toxic | Activity [40]: Active | Activity [41]: 15% | Activity [42]: 13% | Activity [43]: Active | Activity [44]: Active | Activity [45]: inactive

COC(=O)[C@]1(C)CCC[C@]2(C)C3=C(CC[C@@H]12)C(=O)C(C(C)C)=CC3=O
inhibition (INH) [1]: Dose-dependent effect | selectivity ratio [2]: 2.34 | Activity [6]: inactive | inhibition [13]: Dose-dependent effect | Activity [17]: inactive | inhibition [20]: Dose-dependent effect | Activity [30]: inactive | selectivity ratio [31]: 1.23 | Activity [35]: inactive | Activity [45]: inactive

CC(C)c1ccc2c(c1O)CC[C@H]1[C@](C)(C(=O)O)CCC[C@]21C
inhibition (INH) [1]: Dose-dependent effect | selectivity ratio [2]: 3.09 | Activity [6]: inactive | inhibition [13]: Dose-dependent effect | Activity [17]: inactive | inhibition [20]: Dose-dependent effect | Activity [30]: inactive | selectivity ratio [31]: 0.77 | Activity [35]: inactive | Activity [45]: inactive

COC(=O)[C@]1(C)CCC[C@]2(C)c3ccc(C(C)C)c(O)c3CC[C@@H]12
inhibition (INH) [1]: Dose-dependent effect | selectivity ratio [2]: 2.59 | Activity [6]: inactive | inhibition [13]: Dose-dependent effect | Activity [17]: inactive | inhibition [20]: Dose-dependent effect | Activity [30]: inactive | selectivity ratio [31]: 1.9 | Activity [35]: inactive | Activity [45]: inactive

CC(C)C1=CC(=O)C2=C(CC[C@H]3[C@](C)(C(=O)O)CCC[C@]23C)C1=O
inhibition (INH) [1]: Dose-dependent effect | selectivity ratio [2]: 8.96 | Activity [3]: inactive | Activity [4]: Non-toxic | Activity [5]: Active | Activity [6]: inactive | Activity [7]: inactive | Activity [8]: Non-toxic | Activity [10]: Toxic | Activity [11]: Active | Activity [12]: inactive | inhibition [13]: Dose-dependent effect | Activity [14]: inactive | Activity [15]: Toxic | Activity [16]: Active | Activity [46]: Non-toxic | Activity [17]: inactive | Activity [18]: inactive | Activity [19]: Non-toxic | inhibition [20]: Dose-dependent effect | Activity [47]: Non-toxic | Activity [23]: inactive | Activity [24]: inactive | Activity [26]: Non-toxic | Activity [27]: inactive | Activity [28]: Non-toxic | Activity [30]: inactive | selectivity ratio [31]: 4.74 | Activity [32]: Active | Activity [33]: Non-toxic | Activity [34]: inactive | Activity [35]: inactive | Activity [37]: inactive | Activity [38]: inactive | Activity [39]: Non-toxic | Activity [40]: inactive | Activity [41]: inactive | Activity [42]: inactive | Activity [43]: Active | Activity [44]: Active | Activity [45]: inactive
